In ChEMBL document CHEMBL5365446, “Discovery, Structure-Activity Relationships, and In Vivo Activity of Dihydropyridone Agonists of the Bile Acid Receptor TGR5” (J Med Chem, 2023):
Converted amounts (≈) assume the structure as drawn.

What was measured:
[1] = molecular target: T1, G-protein coupled bile acid receptor 1 (Homo sapiens, UniProt Q8TDU6); assay: Agonist activity at human TGR5 receptor expressed in HEK293 cells cotransfected with pCMV tag4b-TGR5 assessed as activation of intracellular cAMP production incubated overnight by luciferase reporter gene assay; assay type: functional, cell-based
T1 sequence (Q8TDU6 whole entry): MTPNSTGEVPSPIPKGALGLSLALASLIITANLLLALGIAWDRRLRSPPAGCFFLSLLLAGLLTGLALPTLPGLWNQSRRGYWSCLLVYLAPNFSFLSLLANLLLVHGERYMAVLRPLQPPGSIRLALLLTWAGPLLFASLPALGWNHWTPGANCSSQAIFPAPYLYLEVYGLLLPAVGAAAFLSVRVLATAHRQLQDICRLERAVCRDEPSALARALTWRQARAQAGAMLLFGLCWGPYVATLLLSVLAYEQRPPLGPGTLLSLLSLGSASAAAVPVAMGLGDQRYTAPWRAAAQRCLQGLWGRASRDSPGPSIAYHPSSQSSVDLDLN

[2] = molecular target: T2, G-protein coupled bile acid receptor 1 (Mus musculus, UniProt Q80SS6); assay: Agonist activity at mouse TGR5 receptor expressed in HEK293 cells cotransfected with pCMV AC6-TGR5 assessed as activation of intracellular cAMP production incubated overnight by luciferase reporter gene assay; assay type: functional, cell-based
T2 sequence (Q80SS6 whole entry): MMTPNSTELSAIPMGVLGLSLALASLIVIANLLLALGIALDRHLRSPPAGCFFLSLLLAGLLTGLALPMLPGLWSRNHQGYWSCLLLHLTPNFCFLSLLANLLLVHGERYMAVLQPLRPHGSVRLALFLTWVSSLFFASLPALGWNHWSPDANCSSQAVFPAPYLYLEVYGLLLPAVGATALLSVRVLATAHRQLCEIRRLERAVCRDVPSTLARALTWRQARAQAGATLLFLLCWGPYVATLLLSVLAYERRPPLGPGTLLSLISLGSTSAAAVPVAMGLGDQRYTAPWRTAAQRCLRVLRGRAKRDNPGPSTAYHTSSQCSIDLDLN

[3] = Apparent permeability across apical to basolateral side in human Caco-2 cells measured after 1 hr by LC-MS/MS analysis
physchem [4] = conditions: buffer, pH 7.4
physchem [5] = conditions: buffer, pH 7.4; remark: listed apart in the source
[6] = Apparent permeability across basolateral to apical side in human Caco-2 cells measured after 1 hr by LC-MS/MS analysis
in vitro [7] = conditions: CD-1, mouse, liver microsomes
in vitro [8] = conditions: CD-1, mouse, plasma
in vitro [9] = conditions: CD-1, mouse, liver microsomes; remark: listed apart in the source

Row | SMILES | EC50 ([1]; read-out: EC50) [µM] | EC50 ([2]; read-out: EC50) [µM] | also measured
1 | CC1=C(C(=O)OCc2ccccc2)C(c2ccc(C(F)(F)F)cc2)CC(=O)N1 (stereo not given) | 1.2 | – | –
2 | CC1=C(C(=O)OCc2ccccc2)C(c2ccccc2OC(C)C)CC(=O)N1 (stereo not given) | – | 2.3 | –
3 | COCCN1C(=O)CC(c2ccc(Cl)cc2)C(C(=O)OCc2ccccc2)=C1C (stereo not given) | 0.5 | 0.9 | –
4 | COc1ccccc1COC(=O)C1=C(C)N(C[C@H]2CCCO2)C(=O)C[C@@H]1c1ccc(Cl)nc1 | 0.223 | – | –
5 | C#CCN1C(=O)CC(c2ccc(Cl)cc2)C(C(=O)OCc2ccccc2)=C1C (stereo not given) | 0.7 | 1 | –
6 | COCCN1C(=O)CC(c2ccc(Cl)cc2)C(C(=O)OCc2ccc(C)cc2)=C1C (stereo not given) | 0.3 | – | –
7 | COc1ccccc1COC(=O)C1=C(C)N(Cc2ccco2)C(=O)CC1c1ccc(Cl)cc1 (stereo not given) | 0.26 | 0.16 | –
8 | COc1ccccc1COC(=O)C1=C(C)N(C[C@@H]2CCCO2)C(=O)C[C@H]1c1ccc(Cl)nc1 | 0.035 | – | –
9 | CCN1C(=O)CC(c2ccc(Cl)cc2)C(C(=O)OCc2ccccc2)=C1C (stereo not given) | – | 0.9 | –
10 | COCCN1C(=O)CC(c2ccc(Cl)cc2)C(C(=O)OCc2ccccc2OC(F)(F)F)=C1C (stereo not given) | – | 1.2 | EC50 ([2]; read-out: pEC50 (converted)): 10 µM
11 | COCCN1C(=O)CC(c2ccc(Cl)cc2)C(C(=O)OCc2ccc(F)cc2)=C1C (stereo not given) | 0.3 | 0.5 | –
12 | COCCN1C(=O)CC(c2ccc(Cl)cc2)C(C(=O)OCc2cccc(C)c2)=C1C (stereo not given) | – | – | EC50 ([2]; read-out: pEC50 (converted)): 0.316 µM
13 | COCCN1C(=O)CC(c2ccc(Cl)cc2)C(C(=O)OCc2ccncc2)=C1C (stereo not given) | 1 | 0.7 | –
14 | COCCN1C(=O)CC(c2ccc(Cl)cc2)C(C(=O)OCc2cccc(OC)c2)=C1C (stereo not given) | 0.3 | – | –
15 | COCCCN1C(=O)CC(c2ccc(Cl)cc2)C(C(=O)OCc2ccccc2OC)=C1C (stereo not given) | 0.19 | 0.73 | –
16 | COCCN1C(=O)CC(c2ccc(Cl)cc2)C(C(=O)OCc2cccc(Cl)c2)=C1C (stereo not given) | – | 0.6 | –
17 | CC1=C(C(=O)OCc2ccccc2)C(c2ccc(Cl)cc2)CC(=O)N1Cc1ccccc1 (stereo not given) | 0.8 | 0.9 | –
18 | COCCN1C(=O)CC(c2ccc(Cl)cc2)C(C(=O)OCc2cccc(C(F)(F)F)c2)=C1C (stereo not given) | 0.4 | 0.8 | –
19 | COCCN1C(=O)CC(c2ccc(Cl)cc2)C(C(=O)OCc2cccc(F)c2)=C1C (stereo not given) | – | 0.8 | –
20 | COCCN1C(=O)CC(c2ccc(Cl)cc2)C(C(=O)OCc2ccccc2Cl)=C1C (stereo not given) | 0.3 | 1 | –
21 | COCCN1C(=O)CC(c2ccc(Cl)cc2)C(C(=O)OCc2ccccc2C(F)(F)F)=C1C (stereo not given) | 1.2 | – | EC50 ([2]; read-out: pEC50 (converted)): 1.26 µM
22 | COc1ccccc1COC(=O)C1=C(C)N(C[C@H]2CCCO2)C(=O)C[C@H]1c1ccc(Cl)cc1 | 0.014 | – | EC50 ([1]; read-out: pEC50 (converted)): 0.0158 µM; Papp A→B at 1 h [3]: 0.2 ×10⁻⁶ cm/s; logD at 24 h (physchem [4]): 3.2; solubility thermodynamic at 24 h (physchem [5]): 2.6 µM (≈ 1.22 µg/mL); Papp B→A at 1 h [6]: 0.4 ×10⁻⁶ cm/s
23 | COCCN1C(=O)CC(c2ccc(Cl)cc2)C(C(=O)OCc2ccc(Cl)cc2)=C1C (stereo not given) | – | 0.4 | –
24 | COCCN1C(=O)CC(c2ccc(Cl)cc2)C(C(=O)OCc2ccc(OC)cc2)=C1C (stereo not given) | – | 0.3 | –
25 | COCCN1C(=O)CC(c2ccc(Cl)cc2)C(C(=O)OCCCc2ccccc2)=C1C (stereo not given) | 0.8 | – | –
26 | COCCN1C(=O)CC(c2ccc(Cl)cc2)C(C(=O)NCc2ccccc2)=C1C (stereo not given) | 13 | – | –

Row | SMILES | EC50 ([1]; read-out: EC50) [µM] | EC50 ([2]; read-out: EC50) [µM] | also measured
27 | COCCN1C(=O)CC(c2ccc(Cl)cc2)C(C(=O)OCc2cccc(C(=O)OC)c2)=C1C (stereo not given) | 0.8 | 0.8 | –
28 | COCCN1C(=O)CC(c2ccc(Cl)cc2)C(C(=O)OCc2ccc(C(=O)OC)cc2)=C1C (stereo not given) | 0.3 | – | –
29 | COc1ccccc1COC(=O)C1=C(C)N(CCO)C(=O)CC1c1ccc(Cl)cc1 (stereo not given) | – | 0.77 | –
30 | COC(=O)C1=C(C)N(C)C(=O)CC1c1ccc(Cl)cc1 (stereo not given) | – | 15 | –
31 | COCCN1C(=O)CC(c2ccc(Cl)cc2)C(C(=O)OCc2ccc(C(F)(F)F)cc2)=C1C (stereo not given) | – | 0.4 | –
32 | CC1=C(C(=O)OCc2ccccc2)C(c2ccc(Cl)cc2)CC(=O)N1CC1CCC1 (stereo not given) | – | 0.3 | EC50 ([1]; read-out: pEC50 (converted)): 0.316 µM
33 | CC1=C(C(=O)OCc2ccccc2)C(c2ccc(Cl)cc2)CC(=O)N1CCN(C)C (stereo not given) | – | 4.7 | –
34 | COCCN1C(=O)CC(c2ccc(Cl)cc2)C(C(=O)OCc2ccccc2F)=C1C (stereo not given) | 0.3 | 0.6 | –
35 | COc1ccccc1COC(=O)C1=C(C)N(C[C@@H]2CCCO2)C(=O)C[C@@H]1c1ccc(Cl)nc1 | 0.429 | – | –
36 | C=C(C)CN1C(=O)CC(c2ccc(Cl)cc2)C(C(=O)OCc2ccccc2)=C1C (stereo not given) | 0.8 | 1.1 | –
37 | O=C1CC(c2ccc(Cl)cc2)C(C(=O)OCc2ccccc2)=CN1 (stereo not given) | – | 8.6 | –
38 | COc1ccccc1COC(=O)C1=C(C)N(C[C@H]2CCCO2)C(=O)C[C@H]1c1ccc(Cl)nc1 | 0.002 | – | Papp A→B at 1 h [3]: 22.5 ×10⁻⁶ cm/s; logD at 24 h (physchem [4]): 3.7; solubility thermodynamic at 24 h (physchem [5]): 38.2 µM (≈ 18 µg/mL); microsomal CLint at 40 min, 1 µM (in vitro [7]): 1310 µL/min/mg; Papp B→A at 1 h [6]: 12.3 ×10⁻⁶ cm/s; half-life at 10 µM (in vitro [8]): > 6 h; half-life at 40 min, 1 µM (in vitro [9]): 24 s
39 | C=CCN1C(=O)CC(c2ccc(Cl)cc2)C(C(=O)OCc2ccccc2)=C1C (stereo not given) | 0.8 | – | EC50 ([2]; read-out: pEC50 (converted)): 1.58 µM
40 | CC1=C(C(=O)OCc2ccccc2)C(c2ccc(Cl)cc2)CC(=O)N1C (stereo not given) | – | – | EC50 ([1]; read-out: pEC50 (converted)): 0.631 µM
41 | CC1=C(C(=O)OCc2ccccc2)C(c2ccc(C)cc2)CC(=O)N1 (stereo not given) | 6.3 | – | –
42 | COC(=O)CN1C(=O)CC(c2ccc(Cl)cc2)C(C(=O)OCc2ccccc2OC)=C1C (stereo not given) | – | 0.05 | –
43 | COCCN1C(=O)CC(c2ccc(Cl)cc2)C(C(=O)OCC2CCCCC2)=C1C (stereo not given) | 0.7 | 1.2 | –
44 | CCCCN1C(=O)CC(c2ccc(Cl)cc2)C(C(=O)OCc2ccccc2)=C1C (stereo not given) | 0.5 | 0.9 | –
45 | COCCN1C(=O)CC(c2ccc(Cl)cc2)C(C(=O)OCc2c(C)cc(C)cc2C)=C1C (stereo not given) | – | 0.3 | –
46 | CC1=C(C(=O)OCc2ccccc2)C(c2ccc(Cl)cc2F)CC(=O)N1 (stereo not given) | 2 | – | –
47 | COc1ccccc1COC(=O)C1=C(C)N(C[C@H]2CCCO2)C(=O)C[C@H]1c1ccc(Cl)cc1 (racemic) | 0.03 | – | EC50 ([1]; read-out: pEC50 (converted)): 0.0251 µM
48 | COc1ccccc1COC(=O)C1=C(C)N(C[C@@H]2CCCO2)C(=O)C[C@H]1c1ccc(Cl)cc1 (racemic) | 0.11 | – | –
49 | COc1ccccc1COC(=O)C1=C(C)N(CC2CCCO2)C(=O)CC1c1ccc(Cl)nc1 (racemic; 77) | 0.002 | – | EC50 ([1]; read-out: pEC50 (converted)): 0.0316 µM
50 | COc1ccccc1COC(=O)C1=C(C)N(CC2CCCO2)C(=O)CC1c1ccc(Cl)nc1 (racemic; 78) | 0.088 | – | –
51 | COCCN1C(=O)CC(c2ccc(Cl)cc2)C(C(=O)OCc2ccccc2OC)=C1C (single isomer, unassigned) | 0.075 | 0.12 | –
52 | COCCN1C(=O)CC(c2ccc(Cl)cc2)C(C(=O)OCc2ccccc2OC)=C1C (single isomer, unassigned; enantiomer 1) | 0.12 | – | –
